Test system: adjuvant arthritis
Assay: adjuvant arthritis test
Format: in vivo, Wistar rats
Settings: for Clinical scores (± S.E.): 50 μg/rat peptide in PBS intradermally at day 4, 5 and 6 after M. tuberculosis, score 0 to 18; for Incidence of arthritis (arthritic rats/total rats): 50 μg/rat at day 4, 5 and 6
Protocol: The peptide of the present invention is useful in the treatment of inflammatory pathologies of different kinds and origins, as it is shown by pharmacological test (adjuvant arthritis test) as follows.
15 Wistar rats (C. River; weight 130-140 g) and anaesthetized with CO2, were intradermically administered (injection at the base of the tie) with 0.1 ml of a suspension of 10 mg/ml of heat-inactivated M. tuberculosis (Strain C, DT and PN; Central Vet. Labs--GB), in sterile paraffin oil. The rats were divided in 3 groups of 5 animals each, and at day 4, 5 and 6 from the above treatment, following the same method for inducing arthritis, they were administered with 50 μg/rat dose of the peptide I in 100 μl of PBS for the first group, with PBS only for the second group, while the third group was not treated. The course of the arthritis was monitored according to the following scheme of clinical scores:
The scores range from 0 to 4 for each paw; furthermore one additional score is assigned if there are nodules on the tie, and another futher score is assigned if ears are involved, thereby the score is 0 at minimum and 18 at maximum.

H-AKVNIKPLEDKILVQANEAETTTAS-OH [1-25]
Clinical scores (± S.E.) (day 7): 0
Clinical scores (± S.E.) (day 8): 0
Incidence of arthritis (arthritic rats/total rats) (day 10): 1/5
Clinical scores (± S.E.) (day 10): 0.6 ± 0.6
Incidence of arthritis (arthritic rats/total rats) (day 11): 5/5
Clinical scores (± S.E.) (day 11): 3.8 ± 0.4
Incidence of arthritis (arthritic rats/total rats) (day 12): 5/5
Clinical scores (± S.E.) (day 12): 10.0 ± 0.7
Clinical scores (± S.E.) (day 13): 12.6 ± 0.6
